Measurements as given in patent US9266878B2, “Phosphatidylinositol 3-kinase inhibitors” (Gilead Calistoga LLC, priority 2012, dated 2016).

Key:
Experiment in all cases: Enzymatic activity of PI3K isoforms, TR-FRET assay (PIP3 formation)
Type in all cases: biochemical
PI3Kα = PI3Kα (Homo sapiens (Human), UniProt P42336); conditions: bound given in uM
Description: (§1) Enzymatic activity of the class I PI3K isoforms was measured using a time-resolved fluorescence resonance energy transfer (TR-FRET) assay that monitors formation of the product 3,4,5-inositol triphosphate molecule (PIP3), as it competes with fluorescently labeled PIP3 for binding to the GRP-1 pleckstrin homology domain protein. An increase in […] product results in a decrease in TR-FRET signal as the labeled fluorophore is displaced from the GRP-1 protein binding site.
(§2) Class I PI3K isoforms were expressed and purified as heterodimeric recombinant proteins. All assay reagents and buffers for the TR-FRET assay were purchased from Millipore. […] After an assay reaction time of 30 minutes at 25° C., reactions were terminated with a final concentration of 10 mM EDTA, 10 nM labeled-PIP3, and 35 nM Europium labeled GRP-1 detector protein before reading TR-FRET on an Envision plate reader (Ex: 340 nm; Em: 615/665 nm; 100 μs delay and 500 μs read window).
(§3) IC50 are reported in units of nM. These assays generally produced results within 3-fold of the reported mean.

PI3Kδ = PI3Kδ (Homo sapiens (Human), UniProt O00329); conditions: bound given in nM
Description: as §1, §2, §3

PI3Kγ = PI3Kγ (Homo sapiens (Human), UniProt P48736)
Description: as §1
Class I PI3K isoforms were expressed and purified as heterodimeric recombinant proteins. All assay reagents and buffers for the TR-FRET assay were purchased from Millipore.
IC50 are reported in units of nM.

PI3Kγ, sequence (P48736 whole entry): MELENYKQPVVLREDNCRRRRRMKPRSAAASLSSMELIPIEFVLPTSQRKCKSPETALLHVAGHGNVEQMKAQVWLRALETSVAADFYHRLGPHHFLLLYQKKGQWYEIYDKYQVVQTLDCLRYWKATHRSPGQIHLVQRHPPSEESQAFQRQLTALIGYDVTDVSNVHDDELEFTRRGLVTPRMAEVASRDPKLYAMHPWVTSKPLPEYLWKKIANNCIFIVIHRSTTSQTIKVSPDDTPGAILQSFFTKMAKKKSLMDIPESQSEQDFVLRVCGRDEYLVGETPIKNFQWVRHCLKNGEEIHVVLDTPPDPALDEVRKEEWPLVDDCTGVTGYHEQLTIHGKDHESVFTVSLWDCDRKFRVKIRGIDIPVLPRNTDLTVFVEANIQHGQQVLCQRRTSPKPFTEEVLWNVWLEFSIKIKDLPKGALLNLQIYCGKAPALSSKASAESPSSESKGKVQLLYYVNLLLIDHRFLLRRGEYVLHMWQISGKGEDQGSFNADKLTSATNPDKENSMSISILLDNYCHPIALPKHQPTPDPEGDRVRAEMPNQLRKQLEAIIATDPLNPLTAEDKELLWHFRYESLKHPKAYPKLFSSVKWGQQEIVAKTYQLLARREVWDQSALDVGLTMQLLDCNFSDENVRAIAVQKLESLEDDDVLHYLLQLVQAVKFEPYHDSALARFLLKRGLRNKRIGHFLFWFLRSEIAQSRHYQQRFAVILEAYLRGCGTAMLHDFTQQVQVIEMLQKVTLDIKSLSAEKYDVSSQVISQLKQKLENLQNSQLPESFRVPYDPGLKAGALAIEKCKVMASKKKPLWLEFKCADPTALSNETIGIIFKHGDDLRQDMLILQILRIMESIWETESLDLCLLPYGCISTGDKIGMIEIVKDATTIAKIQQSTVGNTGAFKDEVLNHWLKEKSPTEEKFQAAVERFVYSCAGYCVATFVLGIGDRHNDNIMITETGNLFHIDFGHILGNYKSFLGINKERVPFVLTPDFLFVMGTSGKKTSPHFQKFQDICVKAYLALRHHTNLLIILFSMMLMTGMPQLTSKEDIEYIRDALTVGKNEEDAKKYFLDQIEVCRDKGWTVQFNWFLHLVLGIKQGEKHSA
PI3Kγ, sequence (Q8WYR1 whole entry partner): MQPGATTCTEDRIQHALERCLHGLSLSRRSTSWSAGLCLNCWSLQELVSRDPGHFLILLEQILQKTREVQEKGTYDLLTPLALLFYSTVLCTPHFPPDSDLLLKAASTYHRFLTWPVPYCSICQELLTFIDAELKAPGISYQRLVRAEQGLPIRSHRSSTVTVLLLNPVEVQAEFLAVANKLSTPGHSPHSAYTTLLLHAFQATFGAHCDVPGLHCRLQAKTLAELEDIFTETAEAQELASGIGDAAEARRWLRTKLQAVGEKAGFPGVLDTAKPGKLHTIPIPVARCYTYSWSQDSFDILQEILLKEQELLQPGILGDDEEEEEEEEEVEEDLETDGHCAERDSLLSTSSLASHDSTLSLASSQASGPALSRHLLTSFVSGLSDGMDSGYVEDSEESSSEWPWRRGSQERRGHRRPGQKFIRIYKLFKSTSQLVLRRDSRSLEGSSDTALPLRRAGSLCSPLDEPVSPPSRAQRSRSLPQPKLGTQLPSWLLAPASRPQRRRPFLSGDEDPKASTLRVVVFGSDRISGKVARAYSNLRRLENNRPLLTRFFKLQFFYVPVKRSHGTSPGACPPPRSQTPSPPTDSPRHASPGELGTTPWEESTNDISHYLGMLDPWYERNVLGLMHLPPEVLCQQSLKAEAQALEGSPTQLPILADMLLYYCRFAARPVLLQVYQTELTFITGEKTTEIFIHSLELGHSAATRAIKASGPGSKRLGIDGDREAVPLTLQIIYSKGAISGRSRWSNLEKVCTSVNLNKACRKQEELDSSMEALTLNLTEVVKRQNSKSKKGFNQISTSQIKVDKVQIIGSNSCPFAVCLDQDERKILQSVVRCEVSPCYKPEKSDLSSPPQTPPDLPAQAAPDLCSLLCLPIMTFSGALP
PI3Kδ, sequence (O00329 whole entry): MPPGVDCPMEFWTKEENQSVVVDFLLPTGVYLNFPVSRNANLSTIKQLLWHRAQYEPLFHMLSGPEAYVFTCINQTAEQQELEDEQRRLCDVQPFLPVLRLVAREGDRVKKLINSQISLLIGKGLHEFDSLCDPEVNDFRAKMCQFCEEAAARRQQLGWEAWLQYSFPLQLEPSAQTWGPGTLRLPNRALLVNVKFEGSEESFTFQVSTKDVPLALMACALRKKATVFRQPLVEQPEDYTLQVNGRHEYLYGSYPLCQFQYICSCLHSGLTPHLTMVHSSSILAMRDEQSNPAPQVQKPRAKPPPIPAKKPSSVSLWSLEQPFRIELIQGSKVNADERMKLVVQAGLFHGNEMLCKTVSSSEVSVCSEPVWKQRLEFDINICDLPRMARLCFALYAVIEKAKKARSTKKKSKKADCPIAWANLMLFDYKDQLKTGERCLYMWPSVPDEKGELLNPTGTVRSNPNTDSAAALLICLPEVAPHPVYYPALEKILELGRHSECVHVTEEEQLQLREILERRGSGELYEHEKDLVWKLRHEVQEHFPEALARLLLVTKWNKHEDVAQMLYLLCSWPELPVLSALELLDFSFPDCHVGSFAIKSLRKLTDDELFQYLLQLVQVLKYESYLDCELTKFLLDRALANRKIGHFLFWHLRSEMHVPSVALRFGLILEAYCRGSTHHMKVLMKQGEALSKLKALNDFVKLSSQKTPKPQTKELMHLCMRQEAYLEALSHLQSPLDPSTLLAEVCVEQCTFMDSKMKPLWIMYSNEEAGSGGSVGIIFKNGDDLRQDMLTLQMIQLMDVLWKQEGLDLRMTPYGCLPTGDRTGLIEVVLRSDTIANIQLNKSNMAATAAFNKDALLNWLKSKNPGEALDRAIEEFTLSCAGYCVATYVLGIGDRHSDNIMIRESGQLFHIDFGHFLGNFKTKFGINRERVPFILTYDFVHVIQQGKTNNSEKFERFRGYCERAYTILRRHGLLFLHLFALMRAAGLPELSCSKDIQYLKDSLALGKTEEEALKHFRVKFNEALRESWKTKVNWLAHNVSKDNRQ
PI3Kδ, sequence (P27986 whole entry partner): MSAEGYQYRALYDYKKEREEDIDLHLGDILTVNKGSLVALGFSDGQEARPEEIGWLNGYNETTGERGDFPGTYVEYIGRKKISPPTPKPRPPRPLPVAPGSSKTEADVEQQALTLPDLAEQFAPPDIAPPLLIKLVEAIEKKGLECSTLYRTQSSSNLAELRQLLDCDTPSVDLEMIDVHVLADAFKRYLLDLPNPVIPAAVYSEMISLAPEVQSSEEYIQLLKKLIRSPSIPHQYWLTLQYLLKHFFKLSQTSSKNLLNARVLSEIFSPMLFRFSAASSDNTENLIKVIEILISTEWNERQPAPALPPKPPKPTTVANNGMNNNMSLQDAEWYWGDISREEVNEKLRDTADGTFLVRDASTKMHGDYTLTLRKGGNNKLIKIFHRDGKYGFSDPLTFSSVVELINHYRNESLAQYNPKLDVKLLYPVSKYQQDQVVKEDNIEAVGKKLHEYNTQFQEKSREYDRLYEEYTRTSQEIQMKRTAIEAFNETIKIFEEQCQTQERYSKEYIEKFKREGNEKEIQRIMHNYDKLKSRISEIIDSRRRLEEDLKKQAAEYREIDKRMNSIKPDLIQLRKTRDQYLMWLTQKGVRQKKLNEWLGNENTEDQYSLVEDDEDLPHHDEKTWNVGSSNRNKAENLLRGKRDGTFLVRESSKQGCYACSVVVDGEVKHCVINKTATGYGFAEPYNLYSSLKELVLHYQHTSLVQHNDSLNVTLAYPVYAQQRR
PI3Kα, sequence (P42336 whole entry, the tested form may be a part, canonical isoform): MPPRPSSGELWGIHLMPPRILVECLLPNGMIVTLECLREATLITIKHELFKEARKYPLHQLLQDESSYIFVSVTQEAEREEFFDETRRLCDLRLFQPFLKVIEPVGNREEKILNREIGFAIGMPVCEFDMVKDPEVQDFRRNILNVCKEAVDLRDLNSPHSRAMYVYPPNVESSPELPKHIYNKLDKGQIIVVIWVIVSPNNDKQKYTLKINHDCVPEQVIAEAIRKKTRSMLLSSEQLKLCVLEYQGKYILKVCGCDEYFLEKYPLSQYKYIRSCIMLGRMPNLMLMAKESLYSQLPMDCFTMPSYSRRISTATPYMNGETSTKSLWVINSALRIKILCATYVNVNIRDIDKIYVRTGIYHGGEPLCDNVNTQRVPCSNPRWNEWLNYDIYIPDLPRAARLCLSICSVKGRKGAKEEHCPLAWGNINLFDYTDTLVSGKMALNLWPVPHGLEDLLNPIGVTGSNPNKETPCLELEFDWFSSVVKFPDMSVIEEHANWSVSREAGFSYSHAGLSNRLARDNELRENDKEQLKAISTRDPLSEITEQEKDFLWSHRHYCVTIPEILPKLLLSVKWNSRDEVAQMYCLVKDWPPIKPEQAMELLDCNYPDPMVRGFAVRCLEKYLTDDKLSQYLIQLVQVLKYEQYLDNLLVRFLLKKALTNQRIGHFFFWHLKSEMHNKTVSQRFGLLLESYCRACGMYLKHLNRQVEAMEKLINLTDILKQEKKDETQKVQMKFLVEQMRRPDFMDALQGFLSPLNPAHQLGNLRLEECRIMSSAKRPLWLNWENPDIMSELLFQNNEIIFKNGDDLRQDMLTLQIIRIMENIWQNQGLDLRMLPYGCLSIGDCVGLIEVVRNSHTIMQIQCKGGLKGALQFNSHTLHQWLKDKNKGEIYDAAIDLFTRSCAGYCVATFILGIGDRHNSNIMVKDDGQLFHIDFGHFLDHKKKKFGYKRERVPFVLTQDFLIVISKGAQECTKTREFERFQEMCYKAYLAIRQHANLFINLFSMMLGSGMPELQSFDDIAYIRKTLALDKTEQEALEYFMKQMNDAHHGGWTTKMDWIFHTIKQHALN
PI3Kα, sequence (P27986 whole entry partner, the tested form may be a part, canonical isoform): as the sequence (P27986 whole entry partner) above

| Compound | IC50 (PI3Kα) [µM] | IC50 (PI3Kδ) [nM] | IC50 (PI3Kγ; bound given in uM) [µM] | IC50 (PI3Kγ; bound given in nM) [µM] |
| --- | --- | --- | --- | --- |
| C[C@H](Nc1ncnc(N)c1C#Cc1ccc(F)cn1)c1nc2c(F)ccc(F)c2c(=O)n1-c1ccccc1 [Compound 4a, (S)-2-(1-(6-amino-5-((5-fluoropyridin-2-yl)ethynyl)pyrimidin-4-ylamino)ethyl)-5,8-difluoro-3-phenylquinazolin-4(3H)-one] | > 1 | < 100 | > 1 |  |
| C[C@H](Nc1ncnc(N)c1C#Cc1ccc(F)cn1)c1nc2c(F)cccc2c(=O)n1-c1ccccc1 [Compound 13a, (S)-2-(1-(6-amino-5-((5-fluoropyridin-2-yl)ethynyl)pyrimidin-4-ylamino)ethyl)-8-fluoro-3-phenylquinazolin-4(3H)-one] | > 1 | < 100 | > 1 |  |
| C[C@H](Nc1ncnc(N)c1C#Cc1cnc(N)cc1C(F)(F)F)c1nc2cccc(Cl)c2c(=O)n1-c1cc(F)cc(F)c1 [Compound 17a, (S)-2-(1-(6-amino-5-((6-amino-4-(trifluoromethyl)pyridin-3-yl)ethynyl)pyrimidin-4-ylamino)ethyl)-5-chloro-3-(3,5-difluorophenyl)quinazolin-4(3H)-one] |  | < 100 |  | < 0.1 |
| Cc1ccc(F)c2nc([C@H](C)Nc3ncnc(N)c3C#Cc3cnccn3)n(-c3cccc(C#N)c3)c(=O)c12 [Compound 73a, (S)-3-(2-(1-((6-amino-5-(pyrazin-2-ylethynyl)pyrimidin-4-yl)amino)ethyl)-8-fluoro-5-methyl-4-oxoquinazolin-3(4H)-yl)benzonitrile] | > 1 | < 100 | > 1 |  |
| C[C@H](Nc1ncnc(N)c1C#Cc1cnccn1)c1nc2ccc(F)cc2c(=O)n1-c1ccccc1 [Compound 91a, (S)-2-(1-((6-amino-5-(pyrazin-2-ylethynyl)pyrimidin-4-yl)amino)ethyl)-6-fluoro-3-phenylquinazolin-4(3H)-one] | > 1 | < 100 | > 1 |  |
| C[C@H](Nc1ncnc(N)c1C#Cc1ncccn1)c1nc2cccc(F)c2c(=O)n1-c1ccccc1 [Compound 109a, 2-(1-((6-amino-5-(pyrimidin-2-ylethynyl)pyrimidin-4-yl)amino)ethyl)-5-fluoro-3-phenylquinazolin-4(3H)-one] | > 1 | < 100 | > 1 |  |
| C[C@H](Nc1ncnc(N)c1C#Cc1cnccn1)c1nc2cccc(F)c2c(=O)n1-c1cccnc1 [Compound 115a, (S)-2-(1-((6-amino-5-(pyrazin-2-ylethynyl)pyrimidin-4-yl)amino)ethyl)-5-fluoro-3-(pyridin-3-yl)quinazolin-4(3H)-one] | > 1 | < 100 | > 1 |  |
| C[C@H](Nc1ncnc(N)c1C#Cc1ccccc1)c1nc2cccc(F)c2c(=O)n1-c1cccnc1 [Compound 116a, (S)-2-(1-((6-amino-5-(phenylethynyl)pyrimidin-4-yl)amino)ethyl)-5-fluoro-3-(pyridin-3-yl)quinazolin-4(3H)-one] |  | < 100 | > 1 |  |
| C[C@H](Nc1ncnc(N)c1C#Cc1cnccn1)c1nc2cccc(Cl)c2c(=O)n1-c1cccnc1 [Compound 118a, (S)-2-(1-((6-amino-5-(pyrazin-2-ylethynyl)pyrimidin-4-yl)amino)ethyl)-5-chloro-3-(pyridin-3-yl)quinazolin-4(3H)-one] | > 1 | < 100 | > 1 |  |
| Cc1cccc2nc([C@H](C)Nc3ncnc(N)c3C#Cc3cnccn3)n(-c3cccnc3)c(=O)c12 [Compound 119a, (S)-2-(1-((6-amino-5-(pyrazin-2-ylethynyl)pyrimidin-4-yl)amino)ethyl)-5-methyl-3-(pyridin-3-yl)quinazolin-4(3H)-one] | > 1 | < 100 | > 1 |  |
| C[C@H](Nc1ncnc(N)c1C#Cc1ccc(F)cn1)c1nc2cccc(Cl)c2c(=O)n1N1CCOCC1 [Compound 121a, (S)-2-(1-((6-amino-5-((5-fluoropyridin-2-yl)ethynyl)pyrimidin-4-yl)amino)ethyl)-5-chloro-3-morpholinoquinazolin-4(3H)-one] | > 1 | < 100 | > 1 |  |
| Cc1ccc(C#Cc2c(N)ncnc2N[C@@H](C)c2nc3cccc(Cl)c3c(=O)n2-c2ccccc2)nc1 [Compound 133a, (S)-2-(1-((6-amino-5-((5-methylpyridin-2-yl)ethynyl)pyrimidin-4-yl)amino)ethyl)-5-chloro-3-phenylquinazolin-4(3H)-one] | > 1 | < 100 |  | < 0.1 |
| Cc1nc(C#Cc2c(N)ncnc2N[C@@H](C)c2nc3cccc(Cl)c3c(=O)n2-c2ccccc2)ccc1F [Compound 140a, (S)-2-(1-((6-amino-5-((5-fluoro-6-methylpyridin-2-yl)ethynyl)pyrimidin-4-yl)amino)ethyl)-5-chloro-3-phenylquinazolin-4(3H)-one] | > 1 | < 100 | > 1 |  |
| C[C@H](Nc1ncnc(N)c1C#CC1CCCC1)c1nc2cccc(Cl)c2c(=O)n1-c1ccccc1 [Compound 144a, (S)-2-(1-((6-amino-5-(cyclopentylethynyl)pyrimidin-4-yl)amino)ethyl)-5-chloro-3-phenylquinazolin-4(3H)-one] | > 1 | < 100 | > 1 |  |
| C[C@H](Nc1ncnc(N)c1C#Cc1cccc(C(F)(F)F)n1)c1nc2cccc(Cl)c2c(=O)n1-c1ccccc1 [Compound 151a, (S)-2-(1-((6-amino-5-((6-(trifluoromethyl)pyridin-2-yl)ethynyl)pyrimidin-4-yl)amino)ethyl)-5-chloro-3-phenylquinazolin-4(3H)-one] | > 1 | < 100 |  |  |
| CC(=O)c1cccc(C#Cc2c(N)ncnc2N[C@@H](C)c2nc3cccc(Cl)c3c(=O)n2-c2ccccc2)n1 [Compound 153a, (S)-2-(1-((5-((6-acetylpyridin-2-yl)ethynyl)-6-aminopyrimidin-4-yl)amino)ethyl)-5-chloro-3-phenylquinazolin-4(3H)-one] | > 1 | < 100 |  |  |

More lines, now with the values ahead:

| IC50 (PI3Kα) [µM] | IC50 (PI3Kδ) [nM] | IC50 (PI3Kγ; bound given in uM) [µM] | IC50 (PI3Kγ; bound given in nM) [µM] | Compound |
| --- | --- | --- | --- | --- |
| > 1 | < 100 | > 1 |  | Nc1ncnc(N[C@H](CO)c2nc3cccc(Cl)c3c(=O)n2-c2ccccc2)c1C#Cc1ccc(F)cn1 [139b] |
| > 1 | < 100 | > 1 |  | C[C@H](Nc1ncnc(N)c1C#Cc1ccc(F)cn1)c1nc2c(Cl)ccc(Cl)c2c(=O)n1-c1ccccc1 [Compound 11a, (S)-2-(1-(6-amino-5-((5-fluoropyridin-2-yl)ethynyl)pyrimidin-4-ylamino)ethyl)-5,8-dichloro-3-phenylquinazolin-4(3H)-one] |
|  | < 100 |  | < 0.1 | C[C@H](Nc1nc(N)nc(N)c1C#Cc1ccccc1)c1nc2cccc(Cl)c2c(=O)n1-c1ccccc1 [Compound 25a, 5-chloro-2-(1-((2,6-diamino-5-(phenylethynyl)pyrimidin-4-yl)amino)ethyl)-3-phenylquinazolin-4(3H)-one] |
|  | < 100 |  | < 0.1 | C[C@H](Nc1ncnc(N)c1C#Cc1cccnc1)c1nc2cccc(Cl)c2c(=O)n1-c1ccccc1 [Compound 44a, (S)-2-(1-(6-amino-5-(pyridin-3-ylethynyl)pyrimidin-4-ylamino)ethyl)-5-chloro-3-phenylquinazolin-4(3H)-one] |
| > 1 | < 100 | > 1 |  | Cc1ccc(F)c2c(=O)n(-c3ccccc3)c([C@H](C)Nc3ncnc(N)c3C#Cc3ccc(F)cn3)nc12 [Compound 69a, (S)-2-(1-((6-amino-5-((5-fluoropyridin-2-yl)ethynyl)pyrimidin-4-yl)amino)ethyl)-5-fluoro-8-methyl-3-phenylquinazolin-4(3H)-one] |
| > 1 | < 100 | > 1 |  | C[C@H](Nc1ncnc(N)c1C#Cc1cnccn1)c1nc2cccc(F)c2c(=O)n1-c1ccccc1 [Compound 86a, (S)-2-(1-((6-amino-5-(pyrazin-2-ylethynyl)pyrimidin-4-yl)amino)ethyl)-5-fluoro-3-phenylquinazolin-4(3H)-one] |
| > 1 | < 100 | > 1 |  | Cc1cccc2nc([C@H](C)Nc3ncnc(N)c3C#Cc3cnccn3)n(-c3cccc(F)c3)c(=O)c12 [Compound 106a, (S)-2-(1-((6-amino-5-(pyrazin-2-ylethynyl)pyrimidin-4-yl)amino)ethyl)-3-(3-fluorophenyl)-5-methylquinazolin-4(3H)-one] |
| > 1 | < 100 | > 1 |  | COc1cc(F)cc(C#Cc2c(N)ncnc2N[C@@H](C)c2nc3cccc(Cl)c3c(=O)n2N2CCOCC2)c1 [Compound 122a, (S)-2-(1-((6-amino-5-((3-fluoro-5-methoxyphenyl)ethynyl)pyrimidin-4-yl)amino)ethyl)-5-chloro-3-morpholinoquinazolin-4(3H)-one] |
| > 1 | < 100 |  | < 0.1 | C[C@H](Nc1ncnc(N)c1C#Cc1ccc(C(N)=O)cn1)c1nc2cccc(Cl)c2c(=O)n1-c1ccccc1 [Compound 135a, (S)-6-((4-amino-6-((1-(5-chloro-4-oxo-3-phenyl-3,4-dihydroquinazolin-2-yl)ethyl)amino)pyrimidin-5-yl)ethynyl)nicotinamide] |
